Data as given in ChEMBL document CHEMBL4339254, “Lamellarin Sulfates from the Pacific Tunicate Didemnum ternerratum” (J Nat Prod, 2019).
pIC50: −log10 of the molar value.

Test system: HCT-116
Assay: Cytotoxicity in human HCT116 cells assessed as reduction in cell viability incubated for 48 hrs by MTS assay
Assay type: functional, cell-based
Details: for IC50: hct-116; for pIC50: Homo sapiens, HCT-116, 48 h, read-out: IC50; call rule not given here

COc1cc(-c2c3n(c4c(=O)oc5cc(OS(=O)(=O)O)c(OC)cc5c24)CCc2c-3cc(OC)c(OC)c2O)ccc1O
IC50: Not Active

COc1cc(-c2c3c4cc(OC)c(OS(=O)(=O)O)cc4oc(=O)c3n3ccc4cc(OC)c(OC)cc4c23)ccc1O
IC50: Not Active

COc1ccc(-c2c3n(c4c(=O)oc5cc(OS(=O)(=O)O)c(O)cc5c24)CCc2cc(OC)c(O)cc2-3)cc1O
IC50: Not Active

COc1cc(-c2c3n(c4c(=O)oc5cc(OS(=O)(=O)O)c(OC)cc5c24)CCc2cc(OC)c(OC)cc2-3)ccc1O
IC50: Not Active

COc1cc(-c2c3c4cc(OC)c(O)cc4oc(=O)c3n3ccc4cc(OS(=O)(=O)O)c(OC)cc4c23)ccc1O
pIC50: 5.01

COc1ccc(-c2c3n(c4c(=O)oc5cc(OS(=O)(=O)O)c(OC)cc5c24)CCc2c-3cc(OC)c(OC)c2O)cc1O
IC50: Not Active

COc1cc(-c2c3n(c4c(=O)oc5cc(O)c(OC)cc5c24)CCc2c-3cc(OC)c(OC)c2O)ccc1O
pIC50: 5.37
